Assay results reported in US20210055311A1, “SCREENING METHOD FOR ESTROGENIC AND ANTI-ESTROGENIC ACTIVITY” (BUNDESINSTITUT FÜR RISIKOBEWERTUNG, priority 2018, published 2021).

Experiments:
[1] = tested on: MCF7/vBOS cells (DSM ACC3321); assay: Prevention of fulvestrant-induced discontinuous adherens junctions by estrogenic compounds; assay type: cell-based, human; conditions: for prevention of the formation of discontinuous adherens junctions: along with 10^−8 M fulvestrant; for minimal concentration preventing the fulvestrant-induced phenotype: co-treatment with 10^−8 M fulvestrant, 48 h
Description: Briefly, MCF7/vBOS cells were grown on glass coverslips in multi-well tissue culture plates (TPP) for 24 h and then treated for 48 h with 0.1% EtOH (solvent control), the anti-estrogen fulvestrant in the fixed concentration of 10^−8 M and different concentrations (10^−10 M, 10^−9 M, 10^−8 M, 10^−7 M) of the ERα agonist 17β-estradiol. The solvent control was used as a positive control and fulvestrant at a concentration of 10^−8 M without 17β-estradiol addition was used as a negative control. Sample preparation and immunofluorescence microscopy was performed as described in example 2 above. After 48 hours the fraction of cells displaying discontinuous adherens junctions was determined by CellProfiler/CellProfer-analyst software (see example 7).
The same protocols as in example 2 were used with the following deviations: • Bisphenol A: Cells were grown for 24 h and then treated for 48 h with 10^−8 M fulvestrant and 10^−5 or 10^−4 M bisphenol A, respectively, diluted in DSMO. • Nonylphenol: Cells were grown for 24 h and then treated for 48 h with 10^−8 M fulvestrant and 10^−5 or 10^−4 nonylphenol, respectively, diluted in ethanol.
Briefly, cell culture, sample preparation and immunofluorescence microscopy was performed as described in example 2 (ERα signalling inhibition (fulvestrant titration)) and example 5 (ERα signalling restoration (fulvestrant at 10^−8 M in combination with 17β-estradiol titration))..
Subsequently, quantitative image analysis was performed using a pipeline that builds on the CellProfiler software (Carpenter et al., Genome Biol., 2006; 7(10):R100.) for segmentation and extraction of cellular parameters, and on the CellProfiler Analyst software (Jones et al., BMC Bioinformatics, 2008 Nov. 15; 9:482) for parameter-based classification of cells. In the segmentation process, primary objects (nuclei) were identified from DAPI staining by global thresholding using Otsu's method. Next, primary objects served as seeding points for identification of secondary objects (cell membranes) at a defined distance. Finally, tertiary objects (cytoplasm) were defined by subtracting primary from secondary objects. The resulting object masks were then applied to extract cellular parameters including area, shape, distribution and variation of pixel intensities, and mean intensity from the corresponding greyscale images using the CellProfiler MeasureObjectSizeShape, MeasureObjectRadialDistribution, MeasureTexture, and MeasureObjectIntensity modules, and stored in a database file. This database file was then imported into the Classifier module of the CellProfiler Analyst software for supervised training with a subset of cells, and subsequent parameter-based automatic classification of all cells within the entire image dataset. For immunofluorescence images, supervised training based on cell membrane features (E-Cad channel) was conducted with two classes representing continuous adherens junctions (Continuous AJs') and discontinuous adherens junctions (Discontinuous AJs′) (about 30 cells for each class). After the supervised training process had been completed, the entire image dataset from a specific experiment was evaluated and all identified cells were automatically classified into corresponding classes according to their individual parameters. The fraction of cells representing ‘Continuous AJs’ and ‘Discontinuous AJs’ classes were finally graphically represented in stacked bar plots.

[2] = tested on: MCF7/vBOS cells (DSM ACC3321); assay: Formation of discontinuous basolateral adherens junctions upon anti-estrogen exposure (E-Cadherin immunofluorescence); assay type: cell-based, human; conditions: for Concentration (M) suitable for manifestation of the discontinuous basolateral adherens junctions phenotype / Culture time (h) typically required for formation of discontinuous basolateral adherens junctions: cell as deposited under DSM ACC3321; for formation of discontinuous adherens junctions (E-Cadherin staining): concentration and incubation time per compound as in FIGS. 1-3
Excerpt: The time usually required for formation of discontinuous basolateral adherens junctions will depend on the estrogen receptor binding affinity and concentration of the anti-estrogen used on the one hand and the cell used on the other hand, but a person skilled in the art will be readily capable of determining the appropriate time spans and concentration for a given anti-estrogen and cell. For example, if the cell is a cell as deposited under accession number DSM ACC3321, suitable concentration ranges and culture times for manifestation of the discontinuous basolateral adherens junctions phenotype in presence of fulvestrant, tamoxifen, ZK 164015, MPP dihydrochloride, and (Z)-4-hydroxytamoxifen, without being limited thereto, are:
MCF7/vBOS cells were grown on glass coverslips in multi-well tissue culture plates (TPP) for 24 h and then treated for at least 48 h with 0.1% EtOH (solvent control) and different concentrations (10^−11 M, 10^−10 M, 10^−9 M, 10^−8 M, 10^−7 M) of the ERα antagonist fulvestrant (Sigma-Aldrich, CAS-No. 129453-61-8). During experiments, medium was exchanged on a daily basis. All experiments were performed at 37° C. with 5% CO2 in reduced-serum medium (phenol red-free DMEM (Gibco), 5% FBS (Biochrom, S 0615, LOT1353 W), 1% glutamine, 100 μg/ml streptomycin/100 U/ml penicillin (Biochrom)).
After treatment with fulvestrant the adherens junction morphology of the cells was analysed by means of immunofluorescence microscopy. Briefly, cells were fixed with 3.7% formaldehyde in PBS for 15 min, permeabilized with 0.2% Triton X-100 in PBS for 30 min, and blocked with 5% FBS in PBS for 60 min (all steps at room temperature). Incubation with primary and secondary antibodies in PBS containing 1.5% BSA was carried out over night at 4° C. and for 1 h at room temperature, respectively. The following antibodies/dyes were used: anti-E-Cadherin (H-108, Santa Cruz); DAPI (Roche); secondary antibody conjugated to Cy3 (alternatives are, e.g.: Cy2, Alexa Fluor 488/555/647; all Invitrogen). The samples were then mounted in Dako fluorescence mounting medium (Dako) or VectaShield (Vector Labs). All images were acquired with an Axio Observer.Z1 widefield microscope equipped with an Apotome.2 device for optical sectioning using structured illumination (Zeiss). After 48 hours the fraction of cells displaying discontinuous adherens junctions was determined by CellProfiler/CellProfer-analyst software (see example 7).
In view of the results obtained with MCF7/vBOS cells upon exposure to fulvestrant the inventors speculated that a similar phenotype might be obtainable with other ERα antagonist as well. To test this hypothesis, the inventors used the ERα antagonists tamoxifen (Sigma-Aldrich, CAS-No. 10540-29-1), MPP dihydrochloride (Sigma-Aldrich, CAS-No. 911295-24-4), ZK164015 (Tocris, CAS-No. 177583-70-9), and (Z)-4-hydroxytamoxifen (Tocris, CAS-No. 68047-06-3). The same protocols as in example 2 were used with the following deviations: • Tamoxifen: Cells were grown for 24 h and then treated for 144 h with 10^−8 and 10^−6 M tamoxifen. • MPP dihydrochloride: Cells were grown for 24 h and then treated for 144 h with 10^−8 and 10^−6 M MPP dihydrochloride. • ZK164015: Cells were grown for 24 h and then treated for 48 h with 10^−9 and 10^−7 M ZK164015. • (Z)-4-hydroxytamoxifen: Cells were grown for 24 h and then treated for 72 h with 10^−9 and 10^−8 M (Z)-4-hydroxytamoxifen.
Subsequently, quantitative image analysis was performed using a pipeline that builds on the CellProfiler software (Carpenter et al., Genome Biol., 2006; 7(10):R100.) for segmentation and extraction of cellular parameters, and on the CellProfiler Analyst software (Jones et al., BMC Bioinformatics, 2008 Nov. 15; 9:482) for parameter-based classification of cells. In the segmentation process, primary objects (nuclei) were identified from DAPI staining by global thresholding using Otsu's method. […]

| Compound | fraction of cells with continuous adherens junctions (CellProfiler quantification) ([1]; 10^−8 M fulvestrant plus different concentrations, 48 hours) | prevention of the formation of discontinuous adherens junctions [1] | minimal concentration preventing the fulvestrant-induced phenotype [1] | Concentration (M) suitable for manifestation of the discontinuous basolateral adherens junctions phenotype [2] | Culture time (h) typically required for formation of discontinuous basolateral adherens junctions [2] | formation of discontinuous adherens junctions (E-Cadherin staining) [2] |
| --- | --- | --- | --- | --- | --- | --- |
| C[C@]12CC[C@@H]3c4ccc(O)cc4CC[C@H]3[C@@H]1CC[C@@H]2O [17β-estradiol] | restores the fraction of cells with continuous adherens junctions | prevention of the formation of discontinuous adherens junctions | 10^−9 M | – | – | – |
| CC/C(=C(\c1ccc(O)cc1)c1ccc(OCCN(C)C)cc1)c1ccccc1 [(Z)-4-hydroxytamoxifen] | – | – | – | 10^−9-10^−7 M | 48 to 144 h | Discontinuous adherens junctions became apparent |
| Cc1c(-c2ccc(O)cc2)nn(-c2ccc(O)cc2)c1-c1ccc(OCCN2CCCCC2)cc1.Cl.Cl [MPP dihydrochloride] | – | – | – | 10^−6-10^−5 M | 30 to 168 h | Discontinuous adherens junctions became apparent |
| CC/C(=C(\c1ccccc1)c1ccc(OCCN(C)C)cc1)c1ccccc1 [Tamoxifen] | – | – | – | 10^−6-10^−5 M | 30 to 168 h | Discontinuous adherens junctions became apparent |
| CCCCCS(=O)(=O)CCCCCCCCCCn1c(-c2ccc(O)cc2)c(C)c2cc(O)ccc21 [ZK 164015] | – | – | – | 10^−7-10^−5 M | 24 to 96 h | Discontinuous adherens junctions became apparent |
| CC(C)(c1ccc(O)cc1)c1ccc(O)cc1 [bisphenol A] | – | prevention of the formation of discontinuous adherens junctions | 10^−5 M | – | – | – |
| nonylphenol | – | prevention of the formation of discontinuous adherens junctions | 10^−5 M | – | – | – |
